# Target: human Nav1.8 (Homo sapiens (Human), UniProt Q9Y5Y9)
# Experiment: QPatch 48 HTX electrophysiology assay, half inactivation state voltage protocol (V1/2), HEK293-Nav1.8 cells
# Type: cell-based
# Conditions: HEK293 cells expressing human Nav1.8, human Navβ1 and human TREK1; V1/2 protocol, P2 current; IC50 in molar; average where more than one run
# Procedure: Human embryonic kidney 293 cells (HEK293) expressing human Nav1.8, human Navβ1 and human TREK1 (HEK293-Nav1.8) were grown at 37° C., 5% CO2 in 150 cm^2 flasks. HEK293-Nav1.8 were passaged every 2-3 days into T175 cell culture flasks when confluency reached 80-90%.
# Pharmacological assessment of the compounds of the invention was performed using HEK293-Nav1.8 in combination with an assay developed on the QPatch 48 HTX electrophysiological system. HEK293-Nav1.8 were prepared on the day of use by removing culture media, washing in DPBS, adding Accutase (2 ml to cover the surface, aspirate 1 ml then 1.5 min at 37° C.) followed by addition of CHO-SFM II to stop the enzyme digestion and in order to obtain a suspension of 3×10^6 cell/mL.
# Compound was prepared in an extracellular solution of the following composition: NaCl (145 mM), KCl (4 mM), CaCl2 (2 mM), MgCl2 (2 mM), HEPES (1 mM), Glucose (10 mM), pH 7.4 with NaOH Osmolality 300 mOsM/L. The intracellular solution was used of the following composition: CsF (115 mM), CsCl (20 mM), NaCl (5 mM), EGTA (10 mM), HEPES (10 mM), Sucrose (20 mM), pH 7.2 with CsOH Osmolality 310 mOsm/L.
# Utilizing the voltage-clamp mode in the QPatch 48 HTX system a half inactivation state voltage protocol (V1/2) was used to determine pharmacological activity of compounds of the invention at Nav1.8 ion channels. A V1/2 protocol was utilized with the following voltage steps: a holding voltage of −100 mV was established followed by a 20 ms voltage step to 0 mV (P1), followed by an inactivating voltage step at −46 mV for 8 seconds, followed by a step to −100 mV for 20 ms, before a 20 ms step to 0 mV (P2) before returning to the holding voltage of −100 mV. This voltage protocol was repeated at a frequency of 0.07 Hz., current magnitude was quantified at the P2 step throughout the recording. Inhibition of the measured current amplitude with the compounds of the invention was analyzed by fitting a 4-8 point dose-response curve allowing determination of the fifty percent inhibition concentration (IC50). Within the QPatch HTX software, P2 current was normalized according to measurements made at baseline after compound and after positive reference compound and fit to the following equation: […]
# To assess current run-down over the course of the experiment vehicle-only wells were utilized and the normalized current with vehicle-only (n.IVEH) was determined. To correct the compound response for run-down, the currents were corrected according the following formula: […]
# Compounds of the invention were tested for activity against […]. Potency of the compounds of the invention is reported as a pIC50 value. The pIC50 value is the negative log of the IC50 value, wherein the IC50 value is the half maximal inhibitory concentration measured in molar (M). For compounds tested in more than one experimental run, the pIC50 value is reported as an average.
# human Nav1.8, sequence (Q9Y5Y9 whole entry): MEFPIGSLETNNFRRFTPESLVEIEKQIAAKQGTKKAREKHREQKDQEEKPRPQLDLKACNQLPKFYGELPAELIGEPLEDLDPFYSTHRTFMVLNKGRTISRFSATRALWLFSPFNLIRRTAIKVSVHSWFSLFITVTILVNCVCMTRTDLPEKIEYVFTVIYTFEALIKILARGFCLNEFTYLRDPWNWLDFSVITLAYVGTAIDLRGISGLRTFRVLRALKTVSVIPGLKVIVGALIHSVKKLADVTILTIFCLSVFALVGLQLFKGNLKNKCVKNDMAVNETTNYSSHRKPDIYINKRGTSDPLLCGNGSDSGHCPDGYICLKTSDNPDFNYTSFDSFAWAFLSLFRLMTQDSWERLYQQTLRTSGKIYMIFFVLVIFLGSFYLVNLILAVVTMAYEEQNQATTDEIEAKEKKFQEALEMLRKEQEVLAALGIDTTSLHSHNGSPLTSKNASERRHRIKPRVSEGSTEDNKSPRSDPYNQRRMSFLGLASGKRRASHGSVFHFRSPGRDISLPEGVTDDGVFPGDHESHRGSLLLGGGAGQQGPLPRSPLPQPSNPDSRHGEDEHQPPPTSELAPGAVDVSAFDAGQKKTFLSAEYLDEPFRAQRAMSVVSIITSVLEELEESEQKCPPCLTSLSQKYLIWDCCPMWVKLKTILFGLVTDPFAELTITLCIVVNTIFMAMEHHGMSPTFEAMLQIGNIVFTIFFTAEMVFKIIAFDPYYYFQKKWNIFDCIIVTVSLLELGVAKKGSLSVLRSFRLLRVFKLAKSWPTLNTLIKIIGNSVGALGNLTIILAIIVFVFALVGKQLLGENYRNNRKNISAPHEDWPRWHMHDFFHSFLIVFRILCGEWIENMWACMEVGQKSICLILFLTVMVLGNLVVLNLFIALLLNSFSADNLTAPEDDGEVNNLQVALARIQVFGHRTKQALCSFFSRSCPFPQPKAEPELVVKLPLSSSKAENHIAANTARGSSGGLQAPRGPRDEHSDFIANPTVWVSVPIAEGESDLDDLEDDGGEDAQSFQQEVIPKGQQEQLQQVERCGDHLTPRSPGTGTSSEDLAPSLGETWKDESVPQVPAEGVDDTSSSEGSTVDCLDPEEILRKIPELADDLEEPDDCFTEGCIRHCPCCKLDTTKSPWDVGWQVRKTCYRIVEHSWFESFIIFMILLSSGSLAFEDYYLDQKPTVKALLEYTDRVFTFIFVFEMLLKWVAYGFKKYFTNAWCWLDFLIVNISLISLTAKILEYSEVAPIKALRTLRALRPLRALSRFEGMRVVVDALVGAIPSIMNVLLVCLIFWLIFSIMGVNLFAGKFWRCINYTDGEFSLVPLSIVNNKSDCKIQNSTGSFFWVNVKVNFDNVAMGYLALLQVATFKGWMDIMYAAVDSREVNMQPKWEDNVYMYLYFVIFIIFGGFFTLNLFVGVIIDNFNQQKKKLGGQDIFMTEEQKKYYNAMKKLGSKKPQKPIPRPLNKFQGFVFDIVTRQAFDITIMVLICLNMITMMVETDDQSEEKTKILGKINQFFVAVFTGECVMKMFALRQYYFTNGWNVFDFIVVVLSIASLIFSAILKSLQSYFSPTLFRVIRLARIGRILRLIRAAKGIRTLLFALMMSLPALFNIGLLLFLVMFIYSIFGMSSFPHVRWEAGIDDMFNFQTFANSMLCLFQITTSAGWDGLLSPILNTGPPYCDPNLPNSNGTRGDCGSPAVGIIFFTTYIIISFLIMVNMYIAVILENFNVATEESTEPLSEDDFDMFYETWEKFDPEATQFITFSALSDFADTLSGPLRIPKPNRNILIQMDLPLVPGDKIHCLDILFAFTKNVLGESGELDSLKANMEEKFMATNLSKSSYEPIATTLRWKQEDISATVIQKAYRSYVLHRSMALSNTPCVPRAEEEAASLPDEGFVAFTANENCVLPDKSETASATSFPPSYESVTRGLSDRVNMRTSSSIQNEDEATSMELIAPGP
# human Nav1.8, sequence (Q07699 19-218 partner): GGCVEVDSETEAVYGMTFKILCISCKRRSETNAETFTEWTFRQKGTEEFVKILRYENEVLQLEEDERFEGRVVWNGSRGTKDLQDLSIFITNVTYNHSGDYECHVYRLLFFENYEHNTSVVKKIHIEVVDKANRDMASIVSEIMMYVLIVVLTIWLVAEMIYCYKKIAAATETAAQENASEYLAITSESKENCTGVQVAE
row,SMILES,[Nav1.8] pIC50
1,"Cc1cc(F)ccc1N1CN(c2ccc(=O)[nH]c2C)C(=O)c2cnc(C(F)(F)F)nc21 [Example 2, 1-(4-Fluoro-2-methylphenyl)-3-(2-methyl-6-oxo-1,6-dihydropyridin-3-yl)-7-(trifluoromethyl)-2,3-dihydropyrimido[4,5-d]pyrimidin-4(1H)-one]",6
2,"Cc1cc(F)ccc1N1CN(c2ccc(=O)[nH]c2C)C(=O)c2ncc(C(F)(F)F)nc21 [Example 7, 1-(4-Fluoro-2-methylphenyl)-3-(2-methyl-6-oxo-1,6-dihydropyridin-3-yl)-7-(trifluoromethyl)-2,3-dihydropteridin-4(1H)-one]",5.4
3,"Cc1cc(F)ccc1N1CN(c2ccc(=O)[nH]c2C)C(=O)c2nc(C(F)(F)F)cnc21 [Example 8, 1-(4-Fluoro-2-methylphenyl)-3-(2-methyl-6-oxo-1,6-dihydropyridin-3-yl)-6-(trifluoromethyl)-2,3-dihydropteridin-4(1H)-one]",5.1
4,"Cc1cc(F)ccc1N1CN(c2ccc(=O)[nH]c2C)C(=O)c2ccncc21 [Example 12, 1-(4-Fluoro-2-methylphenyl)-3-(2-methyl-6-oxo-1,6-dihydropyridin-3-yl)-2,3-dihydropyrido[3,4-d]pyrimidin-4(1H)-one]",5.3
5,"Cc1cc(F)ccc1N1CN(c2ccc(=O)[nH]c2C)C(=O)c2cc(Cl)ncc21 [Example 15, 6-Chloro-1-(4-fluoro-2-methylphenyl)-3-(2-methyl-6-oxo-1,6-dihydropyridin-3-yl)-2,3-dihydropyrido[3,4-d]pyrimidin-4(1H)-one]",6.6
6,"Cc1cc(F)ccc1N1CN(c2ccc(=O)[nH]c2C)C(=O)c2cnc(Cl)cc21 [Example 18, 7-Chloro-1-(4-fluoro-2-methylphenyl)-3-(2-methyl-6-oxo-1,6-dihydropyridin-3-yl)-2,3-dihydropyrido[4,3-d]pyrimidin-4(1H)-one]",6.6
7,"Cc1cc(F)ccc1N1CN(c2ccc(=O)[nH]c2C)C(=O)c2cnc(C#N)cc21 [Example 19, 1-(4-Fluoro-2-methylphenyl)-3-(2-methyl-6-oxo-1,6-dihydropyridin-3-yl)-4-oxo-1,2,3,4-tetrahydropyrido[4,3-d]pyrimidine-7-carbonitrile]",5.4
8,"Cc1cc(OC(F)(F)F)ccc1N1CN(c2cc(F)c(=O)[nH]c2C)C(=O)c2cc(C(F)(F)F)ncc21 [Example 21, 3-(5-Fluoro-2-methyl-6-oxo-1,6-dihydropyridin-3-yl)-1-(2-methyl-4-(trifluoromethoxy)phenyl)-6-(trifluoromethyl)-2,3-dihydropyrido[3,4-d]pyrimidin-4(1H)-one]",7.4
9,"Cc1cc(F)ccc1N1CN(c2ccc(=O)[nH]c2C)C(=O)c2cc(C#N)ncc21 [Example 22, 1-(4-Fluoro-2-methylphenyl)-3-(2-methyl-6-oxo-1,6-dihydropyridin-3-yl)-4-oxo-1,2,3,4-tetrahydropyrido[3,4-d]pyrimidine-6-carbonitrile]",5.4
10,"Cc1c[n+]([O-])ccc1N1CN(c2ccc(OC(F)(F)F)cc2C)c2cnc(C(F)(F)F)cc2C1=O [Example 23, 3-Methyl-4-(1-(2-methyl-4-(trifluoromethoxy)phenyl)-4-oxo-6-(trifluoromethyl)-1,4-dihydropyrido[3,4-d]pyrimidin-3(2H)-yl)pyridine 1-oxide]",6.7

# Next, values leading:
row,[Nav1.8] pIC50,SMILES
1,5.9,"Cc1cc(F)ccc1N1CN(c2ccc(=O)[nH]c2C)C(=O)c2ncc(C(F)(F)F)cc21 [Example 1, 1-(4-Fluoro-2-methylphenyl)-3-(2-methyl-6-oxo-1,6-dihydropyridin-3-yl)-7-(trifluoromethyl)-2,3-dihydropyrido[3,2-d]pyrimidin-4(1H)-one]"
2,7,"Cc1[nH]c(=O)ccc1N1CN(c2ccc(F)cc2C(C)C)c2cnc(Cl)cc2C1=O [Example 3, 6-Chloro-1-(4-fluoro-2-isopropylphenyl)-3-(2-methyl-6-oxo-1,6-dihydropyridin-3-yl)-2,3-dihydropyrido[3,4-d]pyrimidin-4(1H)-one]"
3,6.8,"Cc1cc(F)ccc1N1CN(c2ccc(=O)[nH]c2C)C(=O)c2cnc(C(F)(F)F)cc21 [Example 4, 1-(4-Fluoro-2-methylphenyl)-3-(2-methyl-6-oxo-1,6-dihydropyridin-3-yl)-7-(trifluoromethyl)-2,3-dihydropyrido[4,3-d]pyrimidin-4(1H)-one]"
4,7.2,"Cc1[nH]c(=O)ccc1N1CN(c2ccc(F)cc2C(C)C)c2cnc(C(F)(F)F)cc2C1=O [Example 5, 1-(4-Fluoro-2-isopropylphenyl)-3-(2-methyl-6-oxo-1,6-dihydropyridin-3-yl)-6-(trifluoromethyl)-2,3-dihydropyrido[3,4-d]pyrimidin-4(1H)-one]"
5,7,"Cc1cc(F)ccc1N1CN(c2ccc(=O)[nH]c2C)C(=O)c2cc(C(F)(F)F)ncc21 [Example 6, 1-(4-Fluoro-2-methylphenyl)-3-(2-methyl-6-oxo-1,6-dihydropyridin-3-yl)-6-(trifluoromethyl)-2,3-dihydropyrido[3,4-d]pyrimidin-4(1H)-one]"
6,5.8,"Cc1[nH]c(=O)ccc1N1CN(c2ccc(F)cc2C(C)C)c2ccc(Cl)nc2C1=O [Example 9, 6-Chloro-1-(4-fluoro-2-isopropylphenyl)-3-(2-methyl-6-oxo-1,6-dihydropyridin-3-yl)-2,3-dihydropyrido[3,2-d]pyrimidin-4(1H)-one]"
7,7.5,"CCc1c(N2CN(c3ccc(=O)[nH]c3C)C(=O)c3cc(C(F)(F)F)ncc32)ccc(F)c1F [Example 10, 1-(2-Ethyl-3,4-difluorophenyl)-3-(2-methyl-6-oxo-1,6-dihydropyridin-3-yl)-6-(trifluoromethyl)-2,3-dihydropyrido[3,4-d]pyrimidin-4(1H)-one]"
8,6.5,"Cc1cc(F)ccc1N1CN(c2cc(F)c(=O)[nH]c2C)C(=O)c2cc(C(F)(F)F)ncc21 [Example 11, 3-(5-Fluoro-2-methyl-6-oxo-1,6-dihydropyridin-3-yl)-1-(4-fluoro-2-methylphenyl)-6-(trifluoromethyl)-2,3-dihydropyrido[3,4-d]pyrimidin-4(1H)-one]"
9,7.1,"CCc1cc(F)ccc1N1CN(c2ccc(=O)[nH]c2C)C(=O)c2cc(C(F)(F)F)ncc21 [Example 14, 1-(2-Ethyl-4-fluorophenyl)-3-(2-methyl-6-oxo-1,6-dihydropyridin-3-yl)-6-(trifluoromethyl)-2,3-dihydropyrido[3,4-d]pyrimidin-4(1H)-one]"
10,7.9,"Cc1cc(OC(F)(F)F)ccc1N1CN(c2ccc(=O)[nH]c2C)C(=O)c2cc(C(F)(F)F)ncc21 [Example 16, 1-(2-Methyl-4-(trifluoromethoxy)phenyl)-3-(2-methyl-6-oxo-1,6-dihydropyridin-3-yl)-6-(trifluoromethyl)-2,3-dihydropyrido[3,4-d]pyrimidin-4(1H)-one]"
11,7.2,"Cc1[nH]c(=O)ccc1N1CN(c2ccc(F)c(F)c2C)c2cnc(C(F)(F)F)cc2C1=O [Example 17, 1-(3,4-Difluoro-2-methylphenyl)-3-(2-methyl-6-oxo-1,6-dihydropyridin-3-yl)-6-(trifluoromethyl)-2,3-dihydropyrido[3,4-d]pyrimidin-4(1H)-one]"
12,7.1,"CCc1cc(F)ccc1N1CN(c2ccc(=O)[nH]c2C)C(=O)c2cnc(C(F)(F)F)cc21 [Example 20, 1-(2-Ethyl-4-fluorophenyl)-3-(2-methyl-6-oxo-1,6-dihydropyridin-3-yl)-7-(trifluoromethyl)-2,3-dihydropyrido[4,3-d]pyrimidin-4(1H)-one]"

# From patent US20240083896A1, “Nitrogen Containing 2,3-Dihydroquinazolinone Compounds as Nav1.8 Inhibitors” (GlaxoSmithKline Intellectual Property Development Limited, priority 2020, published 2024)
